# Results from ChEMBL document CHEMBL1201862, “PubChem BioAssay data set” (2004).
# Active and inactive are the calls of the source.
# Key:
# [1] = target: T1, Ubiquitin-conjugating enzyme E2 N (Homo sapiens, UniProt P61088); assay type: functional
# T1 sequence (P61088 whole entry): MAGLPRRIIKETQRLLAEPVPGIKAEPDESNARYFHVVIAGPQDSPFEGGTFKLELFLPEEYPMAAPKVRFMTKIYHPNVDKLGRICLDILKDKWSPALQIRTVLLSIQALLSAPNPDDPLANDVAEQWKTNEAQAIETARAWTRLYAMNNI
# [2] = target: T1, Ubiquitin-conjugating enzyme E2 N; assay type: functional; remark: listed apart in the source
# [3] = target: T2, Bcl-2-related protein A1 (Mus musculus, UniProt Q07440); assay type: functional;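 also: confirmatory dose–response counterscreen on Bfl-1, used to check hits from a UBC13 polyubiquitin inhibitor campaign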
# T2 sequence (Q07440 whole entry): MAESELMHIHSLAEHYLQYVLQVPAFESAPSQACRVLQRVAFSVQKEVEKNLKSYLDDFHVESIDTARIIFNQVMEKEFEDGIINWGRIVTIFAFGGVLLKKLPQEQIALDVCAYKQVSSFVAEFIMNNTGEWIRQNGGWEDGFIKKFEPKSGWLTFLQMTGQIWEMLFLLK
# [4] = target: Voltage-dependent T-type calcium channel subunit alpha-1H (Homo sapiens, UniProt O95180); assay type: functional;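 also: channel activity triggered by adding a high calcium stimulation buffer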
# [5] = cells; assay type: functional, cell-based
# [6] = luciferase reporter signal reduction – luminescence, H4-C neuroglioblastoma cells, dose response (AID 2458); assay type: functional, cell-based;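 also: H4 neuroglioblastoma cells stably carrying a luciferase reporter gene fusion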
# [7] = alpha-synuclein stem-loop luciferase translation blockers – H4 neuroglioma cells, luminescence, confirmation (AID 1988); assay type: functional, cell-based
# [8] = Luminescence Cell-Based Dose Response HTS to Identify Inhibitors of 5'UTR Stem-Loop Driven Prion Protein mRNA Translation in H4 Neuroglioblastoma Cells. [Related pubchem assays: 1827 (Project Summary), 1813 (Primary HTS)]; assay type: functional
# [9] = alpha-synuclein stem-loop translation blockers – luminescence, H4 neuroglioblastoma cells, dose confirmation, confirmation (AID 2454); assay type: functional, cell-based;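 also: H4 neuroglioblastoma cells carrying an alpha-synuclein 5'UTR luciferase reporter; potency for inhibition of the luciferase signal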
# [10] = luciferase reporter signal suppression in cells – H4 neuroglioma cells, luminescence, dose response (AID 1990); assay type: functional, cell-based
# [11] = Trypanosoma cruzi growth suppression in host cells – NIH3T3 host cells, beta-gal luminescence, confirmation (AID 2044); assay type: functional, cell-based;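 also: intracellular parasites grown in NIH/3T3 mouse fibroblasts as host cells; luminescent beta-galactosidase reporter signal from transgenic T. cruzi replicating inside host cells; inhibitors lower the luminescence signal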
# [12] = viability of HCT116 lacking mutant beta-catenin – cell-based, human colon tumor, dose response (AID 1045); assay type: functional;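 also: HCT116 colon tumor cells with beta catenin knocked out; cells exposed to compound for 60 hours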
# [13] = target: Melanocortin receptor 4 (Homo sapiens, UniProt P32245); assay type: functional, cell-based;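 also: Cell-based assay with luminescence read-out, confirmatory dose-response testing for agonist activity of biased ligands at MC4R; human U2OS cells with tagged receptor and beta-arrestin; potency of agonists that increase receptor coupling to beta-arrestin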
# [14] = Luminescence Cell-Based Dose Retest to Confirm Inhibitors of Cancer Stem Cells. [Related pubchem assays (depositor defined):AID2717, AID2721]; assay type: functional; conditions: Homo sapiens
# [15] = THP-1 cell cytotoxicity, dose response, cytotoxicity control for non-replicating M. tuberculosis project (AID 489025); assay type: functional
# [16] = cells; assay type: functional
# [17] = viability of PTEN-deleted HCT116 cells – cell-based, HCT116 PTEN knockout, dose response (AID 1047); assay type: functional;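 also: HCT116 colon tumor cells with PTEN knocked out; cells exposed to compound for 60 hours before readout; potency for loss of cell viability measured by luminescence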
# [18] = NIH3T3 cell viability loss – ATP luminescence, mouse fibroblasts, counter-screen, dose response (AID 2010); assay type: functional, cell-based;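 also: cells exposed to compound for about 90 hours before reading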
# [19] = target: T3, Polyadenylate-binding protein 1 (Homo sapiens, UniProt P11940); assay: MLLE domain peptide-binding blockers, IC50 – biochemical, fluorescence polarization, FITC-PAM2 peptide, dose response (AID 602259); assay type: functional; conditions: read-out: IC50_Mean
# [20] = target: DNA dC->dU-editing enzyme APOBEC-3G (Homo sapiens, UniProt Q9HC16); assay: Dose Response confirmation of small molecule APOBEC3G DNA Deaminase Inhibitors via a fluorescence-based single-stranded DNA deaminase assay. [Related pubchem assays (depositor defined):AID493012, AID493028]; assay type: functional
# [21] = target: T3, Polyadenylate-binding protein 1; assay: MLLE binding blockers, Cy5 peptide tracer – biochemical, fluorescence polarization, Cy5-PAM2 peptide, secondary, miRNA deadenylation inhibitor project, dose response (AID 602260); assay type: functional; conditions: read-out: IC50_Mean
# [22] = target: Cyclin-dependent kinase 5/CDK5 activator 1 (Homo sapiens, UniProt Q00535); assay: blockade of human CDK5 activity – biochemical, cherry-picked samples, set 2, dose response (AID 504545)
# [23] = target: T4, Protein RecA (Mycobacterium tuberculosis, UniProt P9WHJ3); assay: Fluorescence Cell-Free Homogeneous Dose Retest to Identify Inhibitors of RecA-Intein Splicing Activity. [Related pubchem assays (depositor defined):AID2097, AID2223, AID489010, AID492950]; assay type: functional
# T4 sequence (P9WHJ3 whole entry): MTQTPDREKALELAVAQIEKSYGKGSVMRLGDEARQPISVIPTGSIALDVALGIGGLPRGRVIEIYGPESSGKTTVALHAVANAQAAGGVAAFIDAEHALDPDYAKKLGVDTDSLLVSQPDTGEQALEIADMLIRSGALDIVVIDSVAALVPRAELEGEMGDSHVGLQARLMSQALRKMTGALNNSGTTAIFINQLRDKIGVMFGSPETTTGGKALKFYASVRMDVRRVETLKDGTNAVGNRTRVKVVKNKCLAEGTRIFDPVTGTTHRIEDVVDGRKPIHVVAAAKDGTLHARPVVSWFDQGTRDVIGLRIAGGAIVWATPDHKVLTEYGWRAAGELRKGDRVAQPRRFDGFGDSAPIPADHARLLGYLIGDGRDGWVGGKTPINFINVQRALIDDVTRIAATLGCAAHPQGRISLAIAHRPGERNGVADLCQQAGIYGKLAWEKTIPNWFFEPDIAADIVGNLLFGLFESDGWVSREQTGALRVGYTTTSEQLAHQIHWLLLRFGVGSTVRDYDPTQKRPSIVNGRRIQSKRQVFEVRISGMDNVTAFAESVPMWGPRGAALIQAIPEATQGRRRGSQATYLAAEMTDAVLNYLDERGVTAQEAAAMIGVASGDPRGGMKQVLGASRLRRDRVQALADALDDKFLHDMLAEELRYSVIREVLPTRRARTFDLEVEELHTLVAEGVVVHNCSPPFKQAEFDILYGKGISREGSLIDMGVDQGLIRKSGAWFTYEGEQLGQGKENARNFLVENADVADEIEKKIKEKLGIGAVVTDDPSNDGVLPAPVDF
# [24] = A Cell Based Secondary Assay To Explore Cytotoxicity of Compounds that Sensitize Mycobacterium Tuberculosis to Beta-Lactam Antibiotics.; assay type: functional
# Chain of Voltage-dependent T-type calcium channel subunit alpha-1H (O95180 whole entry): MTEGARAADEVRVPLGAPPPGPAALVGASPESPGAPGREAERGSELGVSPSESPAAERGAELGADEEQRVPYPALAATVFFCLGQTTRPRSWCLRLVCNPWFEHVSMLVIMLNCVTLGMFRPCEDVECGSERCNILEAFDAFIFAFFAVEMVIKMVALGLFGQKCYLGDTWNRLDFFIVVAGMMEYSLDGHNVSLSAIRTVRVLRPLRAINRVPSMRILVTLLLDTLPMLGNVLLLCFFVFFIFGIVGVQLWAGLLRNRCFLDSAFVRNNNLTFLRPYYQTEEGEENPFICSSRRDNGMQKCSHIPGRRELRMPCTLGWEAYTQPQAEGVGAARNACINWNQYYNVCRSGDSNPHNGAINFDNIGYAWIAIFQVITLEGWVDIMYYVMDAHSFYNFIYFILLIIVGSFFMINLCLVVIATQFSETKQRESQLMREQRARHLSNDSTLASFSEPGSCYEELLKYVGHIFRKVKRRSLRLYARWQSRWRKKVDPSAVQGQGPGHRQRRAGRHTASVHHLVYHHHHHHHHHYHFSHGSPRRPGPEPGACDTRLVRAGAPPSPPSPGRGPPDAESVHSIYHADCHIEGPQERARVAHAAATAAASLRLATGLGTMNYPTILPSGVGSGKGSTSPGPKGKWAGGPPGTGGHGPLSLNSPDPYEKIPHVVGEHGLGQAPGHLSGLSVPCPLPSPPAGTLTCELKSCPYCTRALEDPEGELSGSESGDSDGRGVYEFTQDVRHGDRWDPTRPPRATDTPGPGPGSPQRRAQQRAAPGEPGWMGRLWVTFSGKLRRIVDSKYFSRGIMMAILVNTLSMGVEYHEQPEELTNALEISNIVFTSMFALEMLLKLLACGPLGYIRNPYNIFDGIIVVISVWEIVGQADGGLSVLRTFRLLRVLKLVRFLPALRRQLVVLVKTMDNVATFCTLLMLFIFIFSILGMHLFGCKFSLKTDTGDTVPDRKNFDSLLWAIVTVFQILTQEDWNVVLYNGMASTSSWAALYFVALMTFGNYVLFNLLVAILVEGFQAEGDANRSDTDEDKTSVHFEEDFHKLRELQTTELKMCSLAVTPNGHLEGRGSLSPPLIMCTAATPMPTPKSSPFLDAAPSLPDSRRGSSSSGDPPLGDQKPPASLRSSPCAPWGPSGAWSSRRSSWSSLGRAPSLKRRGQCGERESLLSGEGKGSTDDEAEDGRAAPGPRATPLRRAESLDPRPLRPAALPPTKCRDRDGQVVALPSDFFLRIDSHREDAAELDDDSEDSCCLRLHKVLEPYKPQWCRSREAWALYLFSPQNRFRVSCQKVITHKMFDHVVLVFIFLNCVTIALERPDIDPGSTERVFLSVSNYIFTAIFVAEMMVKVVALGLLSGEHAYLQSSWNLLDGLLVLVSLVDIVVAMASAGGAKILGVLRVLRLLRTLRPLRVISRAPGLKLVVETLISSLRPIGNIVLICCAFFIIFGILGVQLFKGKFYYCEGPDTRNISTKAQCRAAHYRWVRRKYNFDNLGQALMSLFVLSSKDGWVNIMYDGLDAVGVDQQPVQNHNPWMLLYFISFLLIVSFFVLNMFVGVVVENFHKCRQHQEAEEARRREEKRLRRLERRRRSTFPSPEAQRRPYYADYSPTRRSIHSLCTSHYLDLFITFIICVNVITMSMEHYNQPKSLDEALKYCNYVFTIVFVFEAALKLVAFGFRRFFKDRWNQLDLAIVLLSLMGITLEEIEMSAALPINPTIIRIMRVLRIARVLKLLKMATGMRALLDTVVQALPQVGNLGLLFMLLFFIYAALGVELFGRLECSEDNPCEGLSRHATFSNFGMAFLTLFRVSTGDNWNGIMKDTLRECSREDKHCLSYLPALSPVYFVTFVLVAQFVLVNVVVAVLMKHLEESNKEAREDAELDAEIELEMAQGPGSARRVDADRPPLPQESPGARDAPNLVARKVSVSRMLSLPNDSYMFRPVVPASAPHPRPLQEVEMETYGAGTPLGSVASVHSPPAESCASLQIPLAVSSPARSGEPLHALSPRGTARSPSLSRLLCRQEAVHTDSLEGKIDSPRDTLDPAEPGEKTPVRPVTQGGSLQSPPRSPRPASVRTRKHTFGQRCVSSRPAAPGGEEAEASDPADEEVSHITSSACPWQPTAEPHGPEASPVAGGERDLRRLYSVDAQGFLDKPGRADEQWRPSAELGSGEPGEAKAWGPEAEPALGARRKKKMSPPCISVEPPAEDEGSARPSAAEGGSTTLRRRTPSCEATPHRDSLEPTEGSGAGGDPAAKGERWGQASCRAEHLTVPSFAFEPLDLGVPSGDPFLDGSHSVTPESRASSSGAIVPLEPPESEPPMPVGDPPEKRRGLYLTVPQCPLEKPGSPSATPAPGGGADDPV
# T3 sequence (P11940 whole entry, the tested form may be a part): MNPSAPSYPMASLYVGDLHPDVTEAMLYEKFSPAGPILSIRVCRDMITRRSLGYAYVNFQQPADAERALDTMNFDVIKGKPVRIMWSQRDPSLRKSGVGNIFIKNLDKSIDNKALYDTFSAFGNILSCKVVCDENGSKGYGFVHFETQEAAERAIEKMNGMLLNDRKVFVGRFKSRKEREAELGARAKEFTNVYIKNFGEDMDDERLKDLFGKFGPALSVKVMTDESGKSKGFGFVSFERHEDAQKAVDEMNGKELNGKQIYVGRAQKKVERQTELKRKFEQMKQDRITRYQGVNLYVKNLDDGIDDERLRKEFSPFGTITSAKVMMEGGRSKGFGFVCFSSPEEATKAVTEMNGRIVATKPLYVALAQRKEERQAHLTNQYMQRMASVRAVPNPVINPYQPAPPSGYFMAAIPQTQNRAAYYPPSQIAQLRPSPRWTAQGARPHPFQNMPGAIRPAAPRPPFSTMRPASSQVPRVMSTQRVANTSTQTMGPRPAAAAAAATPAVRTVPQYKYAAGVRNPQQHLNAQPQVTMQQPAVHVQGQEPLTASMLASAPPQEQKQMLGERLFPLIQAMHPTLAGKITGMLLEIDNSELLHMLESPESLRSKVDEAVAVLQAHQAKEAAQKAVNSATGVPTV
# Chain of Melanocortin receptor 4 (P32245 whole entry): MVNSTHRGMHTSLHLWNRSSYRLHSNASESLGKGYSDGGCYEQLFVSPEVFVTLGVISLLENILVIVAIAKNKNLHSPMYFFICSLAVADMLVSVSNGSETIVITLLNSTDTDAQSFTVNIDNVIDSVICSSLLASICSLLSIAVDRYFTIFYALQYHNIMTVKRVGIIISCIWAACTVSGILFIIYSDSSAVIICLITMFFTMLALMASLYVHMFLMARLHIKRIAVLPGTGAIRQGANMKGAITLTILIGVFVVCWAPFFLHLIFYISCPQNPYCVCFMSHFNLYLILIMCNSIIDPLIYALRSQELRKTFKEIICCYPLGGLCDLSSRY
# Chain of Cyclin-dependent kinase 5/CDK5 activator 1 (Q00535 whole entry): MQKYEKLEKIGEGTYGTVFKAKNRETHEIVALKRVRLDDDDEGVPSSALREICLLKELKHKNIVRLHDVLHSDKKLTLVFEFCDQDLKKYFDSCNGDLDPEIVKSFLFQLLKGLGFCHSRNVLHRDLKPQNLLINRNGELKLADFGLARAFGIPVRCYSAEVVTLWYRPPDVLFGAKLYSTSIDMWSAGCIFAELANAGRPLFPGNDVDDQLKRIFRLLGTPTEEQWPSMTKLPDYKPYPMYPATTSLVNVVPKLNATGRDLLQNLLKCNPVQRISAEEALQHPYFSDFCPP
# Chain of Cyclin-dependent kinase 5/CDK5 activator 1 (Q15078 whole entry, further chain): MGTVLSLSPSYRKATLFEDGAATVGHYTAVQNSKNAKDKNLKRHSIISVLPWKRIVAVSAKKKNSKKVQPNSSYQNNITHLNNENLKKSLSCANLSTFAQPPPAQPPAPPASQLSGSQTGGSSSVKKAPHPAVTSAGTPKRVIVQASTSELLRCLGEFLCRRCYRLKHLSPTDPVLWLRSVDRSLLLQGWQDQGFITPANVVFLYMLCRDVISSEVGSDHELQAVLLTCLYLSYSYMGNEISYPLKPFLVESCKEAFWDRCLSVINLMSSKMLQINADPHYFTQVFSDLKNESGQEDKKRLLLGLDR
# Chain of DNA dC->dU-editing enzyme APOBEC-3G (Q9HC16 whole entry): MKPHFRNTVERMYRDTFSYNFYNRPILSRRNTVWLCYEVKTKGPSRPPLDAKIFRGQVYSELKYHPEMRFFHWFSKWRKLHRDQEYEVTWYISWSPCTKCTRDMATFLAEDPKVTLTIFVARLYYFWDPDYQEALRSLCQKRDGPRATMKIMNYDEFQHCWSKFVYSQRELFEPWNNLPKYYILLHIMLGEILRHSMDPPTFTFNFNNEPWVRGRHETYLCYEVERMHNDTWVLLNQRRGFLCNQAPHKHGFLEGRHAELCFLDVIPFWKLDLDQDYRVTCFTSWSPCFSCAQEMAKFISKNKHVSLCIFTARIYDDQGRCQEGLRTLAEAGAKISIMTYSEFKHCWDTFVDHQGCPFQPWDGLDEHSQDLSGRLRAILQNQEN
structure (smiles),measurement,setting,value
NNC(=O)c1ccc(CN2C(=O)c3cccc4cccc2c34)cc1,IC50,[1],3.55 µM (active)
same,IC50,[2],8.94 µM (active)
same,IC50,[3],> 20 µM (inactive)
CCCC(=O)N1CCN(c2ccc([N+](=O)[O-])c(NC(C)c3ccccc3)c2)CC1 (stereo not drawn),EC50,[4],5.51 µM (active)
C/C=C(\C)C(=O)OC1C(C)=C2C(C1OC(=O)CCCCC)C(C)(OC(C)=O)CC(OC(=O)CCC)C1(O)C2OC(=O)C1(C)O (stereo not drawn),EC50,[5],0.228 µM (active)
same,EC50,[6],0.051 µM (active)
same,EC50,[7],< 0.1 µM (active)
same,EC50,[8],< 0.1 µM (active)
same,EC50,[9],0.047 µM (active)
same,EC50,[10],< 0.1 µM (active)
COc1ccc(OC)c(CCNC(=O)CS(=O)(=O)Cc2nc(-c3ccc(C)cc3)oc2C)c1,EC50,[4],3.8 µM (active)
OC(CNCCc1ccc(C(F)(F)F)cc1)COc1cccc2ccccc12 (stereo not drawn),EC50,[11],0.631 µM (active)
same,EC50,[12],10.7 µM (active)
same,EC50,[13],> 89.2 µM (inactive)
same,AC50,[14],3.47 µM (active)
same,CC50,[15],21.5 µM (active)
same,IC50,[16],21.7 µM (active)
same,EC50,[17],12.7 µM (active)
same,EC50,[18],> 60 µM (inconclusive)
CCCOC(=O)c1c(NC(=O)C2CCCO2)sc(C(=O)OC)c1C (stereo not drawn),EC50,[12],28.2 µM (active)
same,IC50,[19],> 66 µM (inactive)
same,IC50,[20],69.5 µM (active)
same,EC50,[17],28.7 µM (active)
same,IC50,[21],> 66 µM (inactive)
Cc1n[nH]c(O)c1C(c1ccccc1[N+](=O)[O-])C(C#N)C#N (stereo not drawn),AC50,[22],61.1 µM (active)
same,EC50,[23],3.93 µM (active)
CC(C)(C)Nc1nc(Nc2ccc([N+](=O)[O-])cc2)nc(NC(C)(C)C)n1,CC50,[24],> 40 µM (active)
same,EC50,[7],> 120 µM (not active)
same,EC50,[8],> 120 µM (not active)
same,EC50,[10],> 120 µM (not active)
COc1ccc(/C=N/NC(=O)Cc2csc(Nc3cccc(C(F)(F)F)c3)n2)c(OC)c1,IC50,[1],10.1 µM (active)
same,IC50,[2],14 µM (active)
same,IC50,[3],> 20 µM (inactive)
